Experimental findings from patent publication US8278337B2, “Substituted pyridines that are JNK inhibitors” (Merck Sharp & Dohme, priority 2006, dated 2012) are described below.

The structures appear in SMILES notation. “And” between values parts separate entries of the source, which are not always exact repeats. Identical values can stand only once. Like-named read-outs stand apart in the source and are kept apart here.

Common to all, as to assay type: biochemical
One test has as its target JNK3 (Homo sapiens, UniProt P53779). The experiment in a line: DELFIA kinase assay, JNK3. How it is done: (§1) Assay DELFIA (Dissociation Enhanced Lanthanide Fluorescence Immuno-Assay) Assay:
(§2) Before initiation of kinase reactions, compounds were pre-incubated with the enzyme for 10 minutes. Pre-incubation reactions contained 50 mM HEPES pH 7.3, 10 mM MgCl2, 1 mM DTT, 75 mM NaCl, 1 mM EDTA, 1 mM EGTA, 0.01% CHAPS, 2 nM JNK1, 6 ug/mL biotinylated GST-ATF2, 0.1 mg/ml BSA, 5% DMSO and 0-100 μM compound in a total volume of 40 μL. After a 10 minute room temperature pre-incubation, 10 μL of 35 μM ATP was added to start the reaction (final concentration of ATP=7 uM). Reactions were incubated at room temperature for 30 minutes. A small aliquot (10 uL) was taken and quenched by adding into 190 uL of DELFIA Assay buffer containing 100 mM EDTA. The amount of phosphate transferred to biotinylated GST-ATF2 was measured using the Dissociation Enhanced Lanthanide Fluorescence Immuno-assay (DELFIA) from Perkin Elmer according to manufacturers protocol. Briefly, biotinylated GST-ATF2 was captured on streptavidin coated plates for 1 hour, washed twice, then incubated for 1 hour with a 1:1000 dilution of rabbit-anti-phospho-ATF2 antibody and a 1:3500 dilution of Europium-labeled anti-rabbit secondary antibody. Free antibody was removed with six washes, Europium was dissociated from the antibody, and Europium fluorescence was measured using an excitation wavelength of 340 nm and an emission wavelength of 615 nm. JNK2 and JNK3 kinase reactions were carried out similarly, with the exception that the final concentration of ATP was 4 uM and 2 uM, respectively.

For another test, the target named is JNK1 (Homo sapiens, UniProt P45983). The test is described as follows: DELFIA kinase assay, JNK1. The procedure, abridged: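 Enzyme (2 nM JNK1) was preincubated 10 min with 0–100 μM compound in HEPES pH 7.3 with 5% DMSO, then reacted 30 min at room temperature with biotinylated GST-ATF2 (6 ug/mL). Final ATP was 7 uM for JNK1, 4 uM for JNK2 and 2 uM for JNK3. Phospho-ATF2 was detected by DELFIA europium fluorescence (ex 340, em 615 nm).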
Sequence of JNK1 (P45983 whole entry, species assumed): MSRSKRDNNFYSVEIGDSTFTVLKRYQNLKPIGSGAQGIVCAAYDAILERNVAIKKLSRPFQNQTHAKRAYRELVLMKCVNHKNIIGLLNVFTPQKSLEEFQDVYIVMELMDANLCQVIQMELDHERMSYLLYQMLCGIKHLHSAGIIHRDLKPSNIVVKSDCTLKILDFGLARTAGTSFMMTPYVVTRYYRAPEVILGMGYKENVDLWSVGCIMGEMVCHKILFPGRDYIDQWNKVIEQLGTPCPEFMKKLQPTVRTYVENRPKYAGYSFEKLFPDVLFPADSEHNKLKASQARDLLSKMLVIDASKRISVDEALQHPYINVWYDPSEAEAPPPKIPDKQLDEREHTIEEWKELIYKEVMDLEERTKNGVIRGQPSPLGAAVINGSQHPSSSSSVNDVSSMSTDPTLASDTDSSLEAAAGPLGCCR

A further test addresses JNK2 (Homo sapiens, UniProt P45984). The experiment in a line: DELFIA kinase assay, JNK2. How it is done: as §1, §2
Where [1] appears, read: DELFIA assay, 2 nM JNK1, 7 uM ATP, 10 min pre-incubation.
[2] abbreviates: DELFIA assay, 2 nM JNK1, 7 uM ATP, 10 min pre-incubation, second table, read-out: JNK 1 IC50.
Where [3] appears, read: DELFIA, biotinylated GST-ATF2 substrate, 10 minute pre-incubation, final ATP 7 uM.
Where [4] appears, read: DELFIA, biotinylated GST-ATF2 substrate, final ATP 2 uM.
Where [5] appears, read: DELFIA, biotinylated GST-ATF2 substrate, final ATP 4 uM.

Sequence of JNK2 (P45984 whole entry, species assumed): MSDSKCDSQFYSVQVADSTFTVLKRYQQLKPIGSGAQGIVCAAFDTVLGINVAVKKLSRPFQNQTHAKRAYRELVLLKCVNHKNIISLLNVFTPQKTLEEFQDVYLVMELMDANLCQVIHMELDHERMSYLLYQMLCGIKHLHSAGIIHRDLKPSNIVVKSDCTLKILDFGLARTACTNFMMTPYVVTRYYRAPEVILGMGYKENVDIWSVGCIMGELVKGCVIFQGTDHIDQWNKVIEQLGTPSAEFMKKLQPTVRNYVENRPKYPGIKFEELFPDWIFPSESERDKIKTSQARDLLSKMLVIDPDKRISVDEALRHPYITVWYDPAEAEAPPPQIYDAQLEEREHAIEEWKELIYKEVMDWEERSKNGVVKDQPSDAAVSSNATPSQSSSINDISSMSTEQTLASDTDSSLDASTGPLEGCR
Sequence of JNK3 (P53779 whole entry, species assumed): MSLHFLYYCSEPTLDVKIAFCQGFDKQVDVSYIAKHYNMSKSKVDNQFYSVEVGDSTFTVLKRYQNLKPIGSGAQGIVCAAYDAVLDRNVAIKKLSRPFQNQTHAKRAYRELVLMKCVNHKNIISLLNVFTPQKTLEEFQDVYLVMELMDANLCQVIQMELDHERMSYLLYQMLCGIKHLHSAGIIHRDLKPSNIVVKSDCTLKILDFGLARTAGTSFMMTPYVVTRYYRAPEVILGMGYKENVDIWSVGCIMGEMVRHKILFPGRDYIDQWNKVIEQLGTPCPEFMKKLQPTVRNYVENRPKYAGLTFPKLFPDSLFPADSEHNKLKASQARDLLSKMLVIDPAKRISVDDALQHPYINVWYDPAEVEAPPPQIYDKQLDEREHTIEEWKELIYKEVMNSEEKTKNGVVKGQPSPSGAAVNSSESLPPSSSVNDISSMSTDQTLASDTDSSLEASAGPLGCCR

Regarding `CC(C)NC(=O)c1cccc(C(=O)NCc2cnn(-c3cnc4cccnc4c3)c2)n1` [Compound 222], the IC50 on JNK3 (DELFIA assay) is 10 nM; at JNK1 (setting [1]) it was 18 nM; on JNK1 (setting [2]), 18 nM; on JNK1 (setting [3]) it was 4 to 97 nM and 4 to 19 nM; against JNK2 (DELFIA assay), 8 nM. `Cc1nc2ccc(-n3cc(CNC(=O)c4cccc(C(=O)NC(C)C)n4)cn3)cc2n1C` [Compound 233]: the half-maximal inhibitory concentration (IC50) on JNK3 (DELFIA assay) was 12 nM; against JNK1 (setting [1]), 17 nM; on JNK1 (setting [2]), 17 nM; against JNK1 (setting [3]) it was 4 to 19 nM and 4 to 97 nM; on JNK2 (DELFIA assay), 11 nM. `CC(C)NC(=O)c1cccc(C(=O)NCc2cnn(-c3ccc(S(=O)(=O)N(C)C)cc3)c2)n1` [Compound 152]: the IC50 is 9 nM at JNK3 (setting [4]); 4 to 19 nM and 4 to 97 nM and 11 nM against JNK1 (setting [3]); 8 nM on JNK2 (setting [5]). In the case of `CC(C)NC(=O)c1cccc(C(=O)NCc2cnn(-c3cccc(C#N)c3)c2)n1` [Compound 134], the half-inhibitory concentration (IC50) was 20 nM against JNK3 (DELFIA assay); 15 nM against JNK1 (setting [1]); 4 to 19 nM and 4 to 97 nM on JNK1 (setting [3]); 20 nM against JNK2 (DELFIA assay). With `CC(C)NC(=O)c1cccc(C(=O)NCc2cnn(-c3ccc(S(C)(=O)=O)cc3)c2)n1` [Compound 137], the IC50 against JNK3 (DELFIA assay) was 12 nM; against JNK1 (setting [1]), 13 nM; against JNK1 (setting [3]), 4 to 19 nM and 4 to 97 nM; on JNK2 (DELFIA assay), 3 nM. `CC(C)NC(=O)c1cccc(C(=O)NCc2cnn(-c3ccc4ncccc4c3)c2)n1` [Compound 142]: the IC50 against JNK3 (setting [4]) was 9 nM; against JNK1 (setting [3]) it was 4 to 19 nM and 4 to 97 nM and 6 nM; on JNK2 (setting [5]) it was 8 nM. For the molecule `CC(C)NC(=O)c1cccc(C(=O)NCc2cnn(-c3cccc(C(F)(F)F)c3)c2)n1` [Compound 140], the half-maximal inhibitory concentration (IC50) at JNK3 (setting [4]) is 9 nM; against JNK1 (setting [3]), 4 to 19 nM and 4 to 97 nM and 13 nM; on JNK2 (setting [5]), 11 nM. For the molecule `CCOC(=O)N1CCC(NC(=O)c2cccc(C(=O)NCc3ccc(C)c(F)c3)n2)CC1` [Compound 73], the IC50 on JNK1 (setting [3]) is > 1000 nM and 1030 to 10000 nM. In the case of `CC(C)NC(=O)c1cccc(C(=O)Nc2ccc3nccnc3c2)n1` [Compound 91], the concentration for half-maximal inhibition (IC50) against JNK1 (setting [3]) is > 1000 nM and 1030 to 10000 nM. On JNK1 (setting [3]), `CS(=O)(=O)c1ccc(CNC(=O)c2cccc(-n3cc(-c4ccccn4)cn3)n2)cc1` [Compound 334] registered an IC50 of 102 to 959 nM. `O=C(NCc1cnn(-c2cccc(C(F)(F)F)c2)c1)c1cccc(N2Cc3ccccc3C2)n1` [Compound 344]: the IC50 on JNK1 (setting [3]) is more than 1000 nM. On the same count and under the same terms, the figure for `CC(C)NC(=O)c1cccc(C(=O)NCc2ccc3sc(NC(N)=O)nc3c2)n1` [Compound 87] is 4 to 97 nM; for `Cc1nn(C)c(C)c1CNC(=O)c1cccc(C(=O)NC(C)C)n1` [Compound 102] it is 1030 to 10000 nM and > 1000 nM. On the same count and under the same terms, the figure for `CC(C)NC(=O)c1cccc(C(=O)NCc2cnn(-c3cncnc3)c2)n1` [Compound 145] is 102 to 959 nM; for `Cc1cnc(CNC(=O)c2cccc(C(=O)NC(C)C)n2)cn1` [Compound 92] it is > 1000 nM and 1030 to 10000 nM; for `CC(C)C(=O)Nc1cccc(C(=O)NCc2cnn(-c3cccc(C(F)(F)F)c3)c2)n1` [Compound 354] it is 102 to 959 nM. As to `C[C@H](NC(=O)c1cccc(C(=O)NCc2ccc3nc(N)sc3c2)n1)C(=O)O` [Compound 66], the half-inhibitory concentration (IC50) against JNK1 (setting [3]) was > 1000 nM and 1030 to 10000 nM.

`COC(=O)Nc1cccc(C(=O)NCc2cnn(-c3cccc(C(F)(F)F)c3)c2)n1` [Compound 355]: the IC50 against JNK1 (setting [3]) fell in the range of 102 to 959 nM. For `CC(C)NC(=O)c1cccc(C(=O)NCC2CCN(c3ccc(S(C)(=O)=O)cc3)CC2)n1` [Compound 422], the IC50 at JNK1 (setting [3]) is > 1000 nM and 1030 to 10000 nM. On to `CC(C)NC(=O)c1cccc(C(=O)NCc2cnn(-c3cncc(C#N)c3)c2)n1` [Compound 161], for which, at JNK1 (setting [3]), the IC50 lay within 4 to 97 nM. In the case of `CC(C)NC(=O)c1cccc(C(=O)NCc2cnn(-c3cccc(Cl)c3)c2)n1` [Compound 132], the IC50 on JNK1 (setting [3]) was 4 to 97 nM. In turn, `Nc1nc2ccc(CNC(=O)c3cccc(C(=O)N4CCCC(CO)C4)n3)cc2s1` (stereo not shown) [Compound 37] showed a half-inhibitory concentration (IC50) on JNK1 (setting [3]) of more than 1000 nM. In the case of `CS(=O)(=O)c1ccc(CNC(=O)c2cccc(-n3cc(I)cn3)n2)cc1` [Compound 318], at JNK1 (setting [3]), the IC50 was 102 to 959 nM. `Nc1nc2ccc(CNC(=O)c3cccc(C(=O)NCCc4ccccc4)n3)cc2s1` [Compound 27]: the IC50 at JNK1 (setting [3]) is more than 1000 nM.

On to `CS(=O)(=O)c1ccc(CNC(=O)c2cccc(-n3ccc(C(F)(F)F)n3)n2)cc1` [Compound 315], for which the IC50 on JNK1 (setting [3]) is > 1000 nM and 1030 to 10000 nM.

As for `CC(C)NC(=O)c1cccc(C(=O)NCc2cnn(-c3ccc(C#N)cc3)c2)n1` [Compound 135], the IC50 against JNK3 (setting [4]) was 16 nM; on JNK1 (setting [3]), 4 to 97 nM and 27 nM; against JNK2 (setting [5]), 48 nM. With `CC(C)(C)NC(=O)c1cccc(C(=O)NCc2ccc3nc(N)sc3c2)n1` [Compound 53], the IC50 against JNK1 (setting [3]) was 102 to 959 nM. `Cc1nc2cc(CNC(=O)c3cccc(C(=O)NC(C)C)n3)ccc2n1C` [Compound 127]: the half-maximal inhibitory concentration (IC50) against JNK1 (setting [3]) lay within 102 to 959 nM.

For the molecule `CC(=O)NCCNC(=O)c1cccc(C(=O)NCc2ccc3nc(N)sc3c2)n1` [Compound 16], the IC50 on JNK1 (setting [3]) is more than 1000 nM.

`CC(C)NC(=O)c1cccc(C(=O)NCc2cnn(-c3cccc(F)c3)c2)n1` [Compound 139] came in with a half-inhibitory concentration (IC50) at JNK1 (setting [3]) of 4 to 97 nM. In the case of `CC(C)(C)c1cnn(-c2cccc(C(=O)NCc3ccc(S(C)(=O)=O)cc3)n2)c1` [Compound 336], the half-maximal inhibitory concentration (IC50) at JNK1 (setting [3]) lay in the range of 102 to 959 nM.

For the molecule `O=C(Nc1cccnc1)c1cccc(-n2cc(I)cn2)n1` [Compound 288], on JNK1 (setting [3]), the IC50 is > 1000 nM and 1030 to 10000 nM.

The molecule `Nc1nc2ccc(CNC(=O)c3cccc(C(=O)NC4CC4)n3)cc2s1` [Compound 48] displayed an IC50 at JNK1 (setting [3]) of 102 to 959 nM. For `CCOC(=O)N1CCC(NC(=O)c2cc(-c3cccs3)cc(C(=O)NCc3ccc(S(C)(=O)=O)cc3)n2)CC1` [Compound 414], the half-inhibitory concentration (IC50) at JNK1 (setting [3]) is > 1000 nM and 1030 to 10000 nM.

As for `CC(C)[C@H](CO)NC(=O)c1cccc(C(=O)NCc2ccc3nc(N)sc3c2)n1` [Compound 59], the IC50 on JNK1 (setting [3]) is more than 1000 nM. On to `CCOC(=O)N1CCC(NC(=O)c2cccc(C(=O)N(C)C)n2)CC1` [Compound 38], for which the 50% inhibitory concentration (IC50) against JNK1 (setting [3]) was more than 1000 nM. As for `CS(=O)(=O)c1ccc(CNC(=O)c2cccc(-n3cnc(Br)c3)n2)cc1` [Compound 327], the IC50 at JNK1 (setting [3]) was 1030 to 10000 nM and > 1000 nM. As to `CC(C)NC(=O)c1cccc(C(=O)NCc2cnn(-c3nccs3)c2)n1` [Compound 163], the 50% inhibitory concentration (IC50) against JNK1 (setting [3]) fell in the range of 102 to 959 nM. `CC(C)NC(=O)c1cccc(C(=O)NCc2ccc(N3CCOCC3)nc2)n1` [Compound 115] had a half-maximal inhibitory concentration (IC50) against JNK1 (setting [3]) of 102 to 959 nM. For `CN(C)C(=O)c1cccc(C(=O)NCc2ccc3nc(N)sc3c2)n1` [Compound 13], the IC50 against JNK1 (setting [3]) is more than 1000 nM. `CNc1nc2ccc(CNC(=O)c3cccc(C(=O)NC(C)C)n3)cc2s1` [Compound 200] displayed an IC50 against JNK1 (setting [3]) of 4 to 97 nM. `CCNC(=O)Oc1cccc2ccc(C(=O)NCc3ccc(S(C)(=O)=O)cc3)nc12` [Compound 384]: the 50% inhibitory concentration (IC50) on JNK1 (setting [3]) was > 1000 nM and 1030 to 10000 nM.
